Results published in US8710067B2, “Method for the treatment, alleviation of symptoms of, relieving, improving and preventing a cognitive disease, disorder or condition” (Alcobra Ltd., priority 2009, dated 2014).

Legend:
[1] = system: animals with alcohol intake; conditions: animal studies, cited from earlier work
ADHD/ADD adult patients [2] = assay: Wechsler subtests in ADHD/ADD adult patients (Example 2); format: in vivo, human; conditions: single dose 1400 mg, 90 minutes after dosing
Description: (§1) 38 ADHD/ADD adult patients (age 18-45) of ADHD unit of the Geha Mental Health Center (Israel) were tested.
(§2) A total of four tablets were administered to each patient: • Two tablets of immediate release (IR) formulation (defined in Table 4) and • Two tablets of slow release (SR) formulation (defined in Table 5).
(§3) Tests at inclusion included selection of patients, and included clinical diagnosis by DSM IV, psychiatric examination, WURS & ASRS questionnaires, TOVA (Test of Variables of Attention) score, Wechsler (Wechsler Adult Intelligence Scale) subtests, BDI (Beck Depression Inventory) and STAI (State-Trait Anxiety Inventory) questionnaire.
(§4) The Primary outcome measure was the ADHD Score, TOVA Omission, TOVA Commission, TOVA RT and TOVA Variability analysed as Standard Score in % compared to the patient's prior performance of the TOVA test at baseline. Secondary outcome measures were Subtests from Weschler: Digit span, Symbol Search, Digit symbol.

[3] = system: abstinent chronic alcoholic; conditions: abstinent chronic alcoholics, after 1-2 months of abstinence; control group given vitamin B6; cited from earlier work
[4] = system: frontoparietal cortex of guinea pigs; conditions: cited from earlier work
[5] = Pharmacokinetics after single administration to fasted healthy subjects (Example 1); format: in vivo, human
Description: The above mentioned formulations were given to fasted healthy patients. Blood samples were collected following a predetermined time schedule in order to characterize formulation adsorption and elimination.

humans = conditions: long term data; cited from earlier work
[6] = cited from earlier work
ADHD/ADD adult patients [7] = assay: TOVA (Test of Variables of Attention) in ADHD/ADD adult patients (Example 2); format: in vivo, human; conditions: n = 12; Bonferroni adjustment; NS, p 0.258
Description: as §1, §2, §3
The TOVA is a computerized test developed to assess attention and impulsivity in normal and clinical populations. Main outcome measures for the TOVA are the Omission Standard Score (SS; inattention measure) the Commission Standard Score (SS; measure of impulse control), the Response Time (RT) SS, the Variability in RT SS, and overall ADHD SS (a composite score of the previous submeasures).
as §4

Cc1ncc(CO)c(CO)c1O.O=C1CC[C@@H](C(=O)O)N1 [Metadoxine, pyridoxine L-2-pyrrolidone-5-carboxylate]
increased production of fatty acid esters in the liver ([1]; during chronic alcohol intake): inhibited
oxidative stress and glutathione depletion in hepatic tissues [1]: reduced oxidative stress and prevented glutathione depletion
cognitive functions in the ADHD adult population (Wechsler subtests overall) (ADHD/ADD adult patients [2]): confirmed the ability of Metadoxine to improve cognitive functions
recovery of short-term memory [3]: helps recovery of short-term memory
level of GABA and acetylcholine [4]: increased
time to maximal concentration ([5]; FIG. 1, immediate/slow release formulations, fasted healthy subjects): about 0.5 hour
dose-linearity for Cmax and AUC ([5]; single administration, dose range 700 to 2100 mg, healthy Caucasian subjects): dose-linearity was demonstrated
safety for use by humans (humans): safe for use by humans
mean half life in human serum ([6]; Lu Yuan et al.): about 0.8 hour
half life in human serum ([6]; oral and intravenous administration, no appreciable differences): 40 to 60 min
bioavailability ([6]; oral): 60-80%
ADHD Score, Mean Difference, comparison with (3) Metadoxine 1400 mg, other group not given (ADHD/ADD adult patients [7]): +3.687 NS
